Results reported in publication PMC7613998, “Development of selective inhibitors of phosphatidylinositol 3-kinase C2α” (Nature Chemical Biology, 2022).

What was measured:
Assay in all cases: biochemical
Design in all cases: SelectScreen Z'-LYTE purified kinase panel, per cent inhibition, mean of two points
Details in all cases: (μM)=Km app
IKBKB (IKK beta) = target: T1, IKBKB (IKK beta) (Homo sapiens, UniProt O14920)
T1 sequence (O14920 1-756): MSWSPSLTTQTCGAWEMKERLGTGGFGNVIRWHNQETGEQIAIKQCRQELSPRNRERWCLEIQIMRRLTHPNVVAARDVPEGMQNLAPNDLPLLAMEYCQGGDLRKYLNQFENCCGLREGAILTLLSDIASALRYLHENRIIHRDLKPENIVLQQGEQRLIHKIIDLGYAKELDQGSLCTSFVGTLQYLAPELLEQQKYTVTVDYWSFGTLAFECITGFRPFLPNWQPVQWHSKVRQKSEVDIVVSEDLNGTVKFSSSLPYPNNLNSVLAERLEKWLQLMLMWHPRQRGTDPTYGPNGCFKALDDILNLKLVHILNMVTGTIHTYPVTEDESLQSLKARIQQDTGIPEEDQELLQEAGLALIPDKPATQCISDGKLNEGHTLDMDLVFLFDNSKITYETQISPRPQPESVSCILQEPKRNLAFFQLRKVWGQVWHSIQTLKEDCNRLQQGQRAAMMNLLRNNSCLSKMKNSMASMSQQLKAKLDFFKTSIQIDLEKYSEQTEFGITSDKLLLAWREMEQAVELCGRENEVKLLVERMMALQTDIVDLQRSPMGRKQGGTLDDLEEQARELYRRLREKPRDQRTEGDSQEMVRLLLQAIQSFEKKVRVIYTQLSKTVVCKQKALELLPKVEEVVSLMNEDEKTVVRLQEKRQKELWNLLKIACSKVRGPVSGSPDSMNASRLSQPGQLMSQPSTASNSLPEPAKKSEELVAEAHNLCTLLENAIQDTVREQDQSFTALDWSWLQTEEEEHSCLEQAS

LYN A = target: T2, LYN A (Homo sapiens, UniProt P07948)
T2 construct: isoform A

IGF1R = IGF1R (Homo sapiens, UniProt P08069)
ABL1 E255K = ABL1 E255K (Homo sapiens, UniProt P00519, E255K)
ALK = ALK (Homo sapiens, UniProt Q9UM73)
MET (cMet) = MET (cMet) (Homo sapiens, UniProt P08581)
ERBB4 (HER4) = ERBB4 (HER4) (Homo sapiens, UniProt Q15303)
CSNK1D (CK1 delta) = CSNK1D (CK1 delta) (Homo sapiens, UniProt P48730)
PRKCE (PKC epsilon) = target: T3, PRKCE (PKC epsilon) (Homo sapiens, UniProt Q02156)
T3 sequence (Q02156 1-737): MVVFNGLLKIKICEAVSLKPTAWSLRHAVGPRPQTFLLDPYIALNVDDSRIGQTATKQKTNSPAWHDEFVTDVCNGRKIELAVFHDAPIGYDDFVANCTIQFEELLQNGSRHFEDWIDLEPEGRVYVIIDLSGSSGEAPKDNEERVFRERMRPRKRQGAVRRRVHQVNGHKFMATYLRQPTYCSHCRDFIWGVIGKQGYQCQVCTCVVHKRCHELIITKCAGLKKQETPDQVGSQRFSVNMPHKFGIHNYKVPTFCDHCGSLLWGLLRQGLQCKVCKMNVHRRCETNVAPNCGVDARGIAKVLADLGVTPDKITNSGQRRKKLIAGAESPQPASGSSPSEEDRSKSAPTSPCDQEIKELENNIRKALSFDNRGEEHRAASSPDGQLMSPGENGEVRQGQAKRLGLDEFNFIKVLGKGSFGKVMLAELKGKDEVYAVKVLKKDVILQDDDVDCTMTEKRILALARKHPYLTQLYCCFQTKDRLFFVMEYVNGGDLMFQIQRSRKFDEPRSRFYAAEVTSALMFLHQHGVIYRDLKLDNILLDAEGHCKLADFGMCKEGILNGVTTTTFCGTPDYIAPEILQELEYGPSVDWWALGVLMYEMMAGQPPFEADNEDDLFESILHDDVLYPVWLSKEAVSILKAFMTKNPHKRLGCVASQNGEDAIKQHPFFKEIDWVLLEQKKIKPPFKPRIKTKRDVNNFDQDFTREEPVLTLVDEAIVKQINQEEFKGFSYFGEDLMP

KIT = KIT (Homo sapiens, UniProt P10721)
PDGFRB (PDGFR beta) = PDGFRB (PDGFR beta) (Homo sapiens, UniProt P09619)
PDGFRB (PDGFR beta), sequence (P09619 whole entry): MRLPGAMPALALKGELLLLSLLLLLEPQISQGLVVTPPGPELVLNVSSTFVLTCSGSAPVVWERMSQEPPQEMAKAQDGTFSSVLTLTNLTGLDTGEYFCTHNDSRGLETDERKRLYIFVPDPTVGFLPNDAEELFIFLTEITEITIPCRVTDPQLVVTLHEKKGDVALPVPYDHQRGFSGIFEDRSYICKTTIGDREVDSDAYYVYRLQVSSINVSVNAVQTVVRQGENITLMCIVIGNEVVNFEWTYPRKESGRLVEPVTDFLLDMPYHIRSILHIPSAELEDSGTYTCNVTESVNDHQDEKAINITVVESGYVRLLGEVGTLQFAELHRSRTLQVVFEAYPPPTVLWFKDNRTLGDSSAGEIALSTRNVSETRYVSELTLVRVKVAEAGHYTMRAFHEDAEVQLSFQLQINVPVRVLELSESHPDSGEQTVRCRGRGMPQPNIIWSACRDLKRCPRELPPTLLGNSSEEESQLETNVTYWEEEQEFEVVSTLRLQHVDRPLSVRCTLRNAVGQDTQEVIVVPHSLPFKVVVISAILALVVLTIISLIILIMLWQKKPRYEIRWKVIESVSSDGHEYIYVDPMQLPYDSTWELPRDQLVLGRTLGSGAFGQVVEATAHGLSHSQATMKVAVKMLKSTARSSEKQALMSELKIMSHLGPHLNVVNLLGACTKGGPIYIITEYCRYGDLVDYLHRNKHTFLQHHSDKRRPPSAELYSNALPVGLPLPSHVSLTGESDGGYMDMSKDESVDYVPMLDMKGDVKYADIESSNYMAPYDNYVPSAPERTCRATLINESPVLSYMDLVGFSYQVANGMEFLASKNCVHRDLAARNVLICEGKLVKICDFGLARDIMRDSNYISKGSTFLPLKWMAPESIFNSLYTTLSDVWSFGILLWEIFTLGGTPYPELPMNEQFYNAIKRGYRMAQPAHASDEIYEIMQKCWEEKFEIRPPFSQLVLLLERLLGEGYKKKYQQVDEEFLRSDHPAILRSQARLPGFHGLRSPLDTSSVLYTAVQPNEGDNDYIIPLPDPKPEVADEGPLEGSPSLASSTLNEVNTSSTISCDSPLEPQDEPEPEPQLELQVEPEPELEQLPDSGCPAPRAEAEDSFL

T2 sequence (P07948 whole entry, canonical isoform): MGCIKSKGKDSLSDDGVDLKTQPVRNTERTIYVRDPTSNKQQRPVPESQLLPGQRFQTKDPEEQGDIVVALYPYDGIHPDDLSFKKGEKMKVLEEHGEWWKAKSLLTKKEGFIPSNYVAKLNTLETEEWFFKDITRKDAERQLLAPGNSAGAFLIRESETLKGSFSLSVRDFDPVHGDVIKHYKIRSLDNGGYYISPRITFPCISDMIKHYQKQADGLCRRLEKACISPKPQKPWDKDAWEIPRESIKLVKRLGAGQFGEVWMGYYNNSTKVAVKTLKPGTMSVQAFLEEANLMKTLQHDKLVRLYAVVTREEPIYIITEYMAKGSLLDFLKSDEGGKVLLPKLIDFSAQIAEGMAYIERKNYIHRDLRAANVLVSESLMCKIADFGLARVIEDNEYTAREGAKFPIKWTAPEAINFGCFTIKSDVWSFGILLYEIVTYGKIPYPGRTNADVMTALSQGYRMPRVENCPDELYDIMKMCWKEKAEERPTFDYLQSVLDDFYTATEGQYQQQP
KIT, sequence (P10721 whole entry): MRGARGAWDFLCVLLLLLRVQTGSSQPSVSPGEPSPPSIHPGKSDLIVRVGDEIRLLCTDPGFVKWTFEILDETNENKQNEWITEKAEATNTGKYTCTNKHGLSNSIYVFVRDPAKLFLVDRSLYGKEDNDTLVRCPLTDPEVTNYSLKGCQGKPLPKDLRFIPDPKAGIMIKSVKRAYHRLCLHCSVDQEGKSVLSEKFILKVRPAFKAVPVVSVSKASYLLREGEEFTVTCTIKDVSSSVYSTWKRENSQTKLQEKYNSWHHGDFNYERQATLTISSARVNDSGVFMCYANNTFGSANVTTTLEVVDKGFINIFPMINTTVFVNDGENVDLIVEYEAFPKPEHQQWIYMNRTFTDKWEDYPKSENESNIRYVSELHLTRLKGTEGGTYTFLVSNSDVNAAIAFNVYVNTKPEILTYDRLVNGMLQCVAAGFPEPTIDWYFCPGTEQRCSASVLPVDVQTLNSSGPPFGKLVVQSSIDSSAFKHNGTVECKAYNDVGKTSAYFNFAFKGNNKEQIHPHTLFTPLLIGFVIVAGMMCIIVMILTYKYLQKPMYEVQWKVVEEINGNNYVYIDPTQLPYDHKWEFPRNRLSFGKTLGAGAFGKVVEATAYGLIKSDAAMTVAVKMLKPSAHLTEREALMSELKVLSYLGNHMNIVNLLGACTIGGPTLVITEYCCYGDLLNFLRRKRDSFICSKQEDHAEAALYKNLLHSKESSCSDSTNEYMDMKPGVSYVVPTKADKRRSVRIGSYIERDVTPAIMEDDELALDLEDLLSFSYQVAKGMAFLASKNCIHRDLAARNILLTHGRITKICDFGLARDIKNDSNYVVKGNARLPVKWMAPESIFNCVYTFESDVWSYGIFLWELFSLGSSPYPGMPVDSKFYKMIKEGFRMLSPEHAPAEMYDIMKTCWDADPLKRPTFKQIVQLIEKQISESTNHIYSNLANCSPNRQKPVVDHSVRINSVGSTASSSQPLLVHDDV
CSNK1D (CK1 delta), sequence (P48730 whole entry): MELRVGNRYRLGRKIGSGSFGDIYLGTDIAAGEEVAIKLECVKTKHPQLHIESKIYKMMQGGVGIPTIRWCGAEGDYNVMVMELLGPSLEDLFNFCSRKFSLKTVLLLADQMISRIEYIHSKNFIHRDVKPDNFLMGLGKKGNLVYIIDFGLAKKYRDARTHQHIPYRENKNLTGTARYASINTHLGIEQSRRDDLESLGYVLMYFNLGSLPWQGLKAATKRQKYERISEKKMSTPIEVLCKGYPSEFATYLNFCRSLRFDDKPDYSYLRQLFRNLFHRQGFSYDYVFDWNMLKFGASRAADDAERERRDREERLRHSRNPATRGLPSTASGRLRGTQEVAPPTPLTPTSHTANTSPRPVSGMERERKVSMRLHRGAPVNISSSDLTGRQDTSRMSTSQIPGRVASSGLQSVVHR
ABL1 E255K, sequence (P00519 whole entry E255K): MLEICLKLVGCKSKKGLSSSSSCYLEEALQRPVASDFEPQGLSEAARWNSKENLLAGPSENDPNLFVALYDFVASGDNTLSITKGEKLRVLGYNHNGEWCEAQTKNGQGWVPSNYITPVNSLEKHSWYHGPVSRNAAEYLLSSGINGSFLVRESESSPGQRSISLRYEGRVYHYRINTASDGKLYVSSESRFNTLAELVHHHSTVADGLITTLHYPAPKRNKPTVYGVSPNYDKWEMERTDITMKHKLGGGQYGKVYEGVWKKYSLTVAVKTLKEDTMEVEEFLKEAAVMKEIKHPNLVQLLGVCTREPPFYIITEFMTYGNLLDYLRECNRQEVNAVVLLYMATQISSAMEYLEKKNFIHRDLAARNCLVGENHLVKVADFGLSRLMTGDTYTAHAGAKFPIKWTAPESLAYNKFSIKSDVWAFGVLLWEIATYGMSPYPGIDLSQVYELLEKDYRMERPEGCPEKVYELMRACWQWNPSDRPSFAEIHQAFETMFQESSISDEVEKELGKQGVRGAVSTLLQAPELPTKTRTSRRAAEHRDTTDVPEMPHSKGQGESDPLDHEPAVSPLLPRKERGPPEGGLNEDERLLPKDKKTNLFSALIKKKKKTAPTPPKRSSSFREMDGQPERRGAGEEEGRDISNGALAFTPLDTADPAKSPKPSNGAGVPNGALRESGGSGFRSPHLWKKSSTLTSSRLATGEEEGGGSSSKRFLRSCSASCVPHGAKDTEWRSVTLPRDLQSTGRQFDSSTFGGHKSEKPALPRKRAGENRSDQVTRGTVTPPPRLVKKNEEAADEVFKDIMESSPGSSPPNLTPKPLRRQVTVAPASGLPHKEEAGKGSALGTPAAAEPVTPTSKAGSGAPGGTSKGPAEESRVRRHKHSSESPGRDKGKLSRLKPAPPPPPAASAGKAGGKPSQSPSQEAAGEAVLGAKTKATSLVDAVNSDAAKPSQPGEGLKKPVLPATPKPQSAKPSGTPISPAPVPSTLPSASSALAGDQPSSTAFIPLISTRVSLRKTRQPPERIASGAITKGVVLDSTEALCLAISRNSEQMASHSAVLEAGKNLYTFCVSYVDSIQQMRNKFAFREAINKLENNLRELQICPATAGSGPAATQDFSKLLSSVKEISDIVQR

## O=C(CSc1nc2nccnc2c(=O)n1CCc1ccccc1)Nc1nccs1 [compound 1, PITCOIN1]
IKBKB (IKK beta)
  inhibition at 1 µM: 8.34%
  inhibition at 3 µM: 4.24%
  inhibition at 10 µM: 4.15%
LYN A
  inhibition at 1 µM: 2.62%
  inhibition at 3 µM: 1.7%
  inhibition at 10 µM: 2.95%
IGF1R
  inhibition at 1 µM: 7.35%
  inhibition at 3 µM: 2.59%
  inhibition at 10 µM: 5.33%
ABL1 E255K
  inhibition at 1 µM: -2.31%
  inhibition at 3 µM: -1.35%
  inhibition at 10 µM: -2.49%
ALK
  inhibition at 1 µM: 8.08%
  inhibition at 3 µM: 8.57%
  inhibition at 10 µM: 8.82%
MET (cMet)
  inhibition at 1 µM: 4.52%
  inhibition at 3 µM: -1.8%
  inhibition at 10 µM: 1.23%
ERBB4 (HER4)
  inhibition at 1 µM: -3.45%
  inhibition at 3 µM: -1.62%
  inhibition at 10 µM: 0.146%
CSNK1D (CK1 delta)
  inhibition at 1 µM: 4.82%
  inhibition at 3 µM: 3.36%
  inhibition at 10 µM: 10%
PRKCE (PKC epsilon)
  inhibition at 1 µM: -11.8%
  inhibition at 3 µM: 23.9%
  inhibition at 10 µM: -9.1%
KIT
  inhibition at 1 µM: -11.3%
  inhibition at 3 µM: 5.95%
  inhibition at 10 µM: -5.32%
PDGFRB (PDGFR beta)
  inhibition at 1 µM: -2.01%
  inhibition at 3 µM: -3.23%
  inhibition at 10 µM: 6.51%

## CS(=O)(=O)Nc1cccc(-c2csc(NC(=O)CSc3nc4nccnc4c(=O)n3CCc3ccccc3)n2)c1 [compound 3, PITCOIN3]
IKBKB (IKK beta)
  inhibition at 1 µM: 3.7%
  inhibition at 3 µM: 14.3%
  inhibition at 10 µM: 12.2%
LYN A
  inhibition at 1 µM: 1.87%
  inhibition at 3 µM: 2.86%
  inhibition at 10 µM: 1.59%
IGF1R
  inhibition at 1 µM: 5.31%
  inhibition at 3 µM: 9.19%
  inhibition at 10 µM: 11.7%
ABL1 E255K
  inhibition at 1 µM: -1.49%
  inhibition at 3 µM: 2.48%
  inhibition at 10 µM: -1.01%
ALK
  inhibition at 1 µM: 17.2%
  inhibition at 3 µM: 10.4%
  inhibition at 10 µM: 10.9%
MET (cMet)
  inhibition at 1 µM: 4.73%
  inhibition at 3 µM: 8.1%
  inhibition at 10 µM: -2.17%
ERBB4 (HER4)
  inhibition at 1 µM: -2.57%
  inhibition at 3 µM: -5.3%
  inhibition at 10 µM: -3.59%
CSNK1D (CK1 delta)
  inhibition at 1 µM: 5.88%
  inhibition at 3 µM: 7.07%
  inhibition at 10 µM: 7.02%
PRKCE (PKC epsilon)
  inhibition at 1 µM: -17.8%
  inhibition at 3 µM: -1.73%
  inhibition at 10 µM: -22.6%
KIT
  inhibition at 1 µM: -9.5%
  inhibition at 3 µM: 14.5%
  inhibition at 10 µM: -3.62%
PDGFRB (PDGFR beta)
  inhibition at 1 µM: 4.69%
  inhibition at 3 µM: -3.18%
  inhibition at 10 µM: 1.91%
